The conditions of data set [1]: rat, in vivo.
Data set [2] concerns Dahl salt-sensitive (S) rats. Conditions: exogenous 25-OHD; S rats fed a high salt diet; cited from earlier work.

With `C=C1CC[C@H](O)C/C1=C/C=C1\CCC[C@]2(C)[C@@H]([C@H](C)CCCC(C)(C)O)CC[C@@H]12` [25-OHD, 25-hydroxycholecalciferol], the “increase of plasma 25-OHD” value in data set [1] was “successful in S rats fed low”. Further, in data set [2], the “attenuation of the blood pressure increase” value is recorded as “will not attenuate the blood pressure increase”.

(Values after patent US7888000B2, “Method for identifying salt-sensitive persons” (Morehouse School of Medicine, priority 2002, dated 2011).)
